Experimental findings from patent US20110166078A1, “OLIGOSACCHARIDE COMPOUNDS FOR USE IN MOBILISING STEM CELLS” (ENDOTIS PHARMA, priority 2008, published 2011) are described below.

Assay [1] concerns PDGF-β-induced NHDF proliferation. As to the kind of experiment: PDGF-β-induced NHDF proliferation assay. Format: cell-based, human. Conditions: PDGF-β 10 ng/ml; FIGS. 8-12. Here is the method:
(§1) The activities of the compounds of the present invention were tested using a proliferation assay, such as the one described by N. Ali et al., J Pharmacol Sci, 2005, 98, 130-141. A defined number of cells is seeded in each well of a culture plate. In order to stimulate cell proliferation, a growth factor is added in some wells, while others remain unstimulated (basal proliferation conditions). To monitor the effects of substances of interest (oligosaccharides compounds according to the present invention) on basal and growth factor-induced cell proliferation, substances of interest are added at different concentrations (i.e. 0.1, 0.3, 1, 3, 10 or 30 μM) in presence or absence of the growth factor, respectively. After an incubation period of 24 hours, the total number of cells is estimated in all samples (generally through an indirect method, such as incorporation of radioactivity into the newly synthesised DNA or colorimetric assays based on cellular enzyme activities or metabolite production). The total number of cells for the control sample in which no substance of interest nor growth factor have been added is set to 1. The total number of cells in all the other samples is compared to this value in order to obtain the relative proliferation index.
Typically, cells are seeded in 48 or 96-well plates. After 2 h (i.e. the time required for cells to adhere to the support) the normal culture media is replaced by a minimal essential culture media in which cells are grown for 24 h (starvation period). This step is used to reduce cell growth (cell metabolism is slowed down in order to better visualise the growth factor stimulation effect) before adding an angiogenic protein, such as a growth factor i.e. FGF-2 or PDGF-β. No growth factor is added in basal proliferation conditions (independently of the presence or absence of the oligosaccharide of the present invention). To evaluate the inhibition of the oligosaccharide compounds according to the present invention on cell proliferation, the angiogenic protein (growth factor) is added at a fixed concentration (from 5 ng/ml to 10 ng/ml) with increasing amounts of oligosaccharide compounds (0.1, 0.3, 1, 3, 10 or 30 μM), which allows the IC50 value to be estimated (i.e. the oligosaccharide concentration at which the stimulatory effect of the growth factor is inhibited by 50%).
(§2) Following addition of the angiogenic protein (growth factor) over a 24 h stimulation period, a commercial reagent containing a substrate for a cellular enzyme is added and incubated for couple of hours. The degradation of the substrate by the enzyme leads to the production of a coloured product which is titrated by absorbance measurement. […]

Assay [2] relates to FGF-2-induced NHDF (Normal Human Dermal Fibroblast) cell proliferation. Description: FGF-2-induced NHDF proliferation assay. Format: cell-based. Conditions: compound 0.1 to 30 μM. As for the experimental part: as §1
Typically, cells are seeded in 48 or 96-well plates. After 2 h (i.e. the time required for cells to adhere to the support) the normal culture media is replaced by a minimal essential culture media in which cells are grown for 24 h (starvation period). This step is used to reduce cell growth (cell metabolism is slowed down in order to better visualise the growth factor stimulation effect) before adding an angiogenic protein, such as a growth factor i.e. FGF-2 or PDGF-β. No growth factor is added in basal proliferation conditions (independently of the presence or absence of the oligosaccharide of the present invention). […]
as §2
In the following experiments the effects of compounds 240 and 241 (concentrations from 0.1 to 30 μM) were evaluated on FGF-2-induced NHDF (Normal Human Dermal Fibroblast) cell proliferation. […]

Turning to `C#CCCCOC1OC(COS(=O)(=O)[O-])C(OC2OC(C(=O)[O-])C(OC3OC(COS(=O)(=O)[O-])C(OC4OC(C(=O)[O-])C(OCc5ccccc5)C(OCc5ccccc5)C4OS(=O)(=O)[O-])C(OCc4ccccc4)C3NS(=O)(=O)[O-])C(OCc3ccccc3)C2OS(=O)(=O)[O-])C(OCc2ccccc2)C1NS(=O)(=O)[O-].[Na+].[Na+].[Na+].[Na+].[Na+].[Na+].[Na+].[Na+]` (stereo not shown) [Compound 237], in assay [1], the “inhibition of PDGF-β-induced NHDF proliferation” value is “inhibit PDGF-β proliferation (starting in the micromolar range)”.

Turning to `C#CCCCOC1OC(COS(=O)(=O)[O-])C(OC2OC(C(=O)[O-])C(OC3OC(COS(=O)(=O)[O-])C(OC4OC(C(=O)[O-])C(OC5OC(COS(=O)(=O)[O-])C(OC6OC(C(=O)[O-])C(OC7OC(COS(=O)(=O)[O-])C(OC8OC(C(=O)[O-])C(OC9OC(COS(=O)(=O)[O-])C(OC%10OC(C(=O)[O-])C(OCc%11ccccc%11)C(OCc%11ccccc%11)C%10OS(=O)(=O)[O-])C(OCc%10ccccc%10)C9NS(=O)(=O)[O-])C(OCc9ccccc9)C8OS(=O)(=O)[O-])C(OCc8ccccc8)C7NS(=O)(=O)[O-])C(OCc7ccccc7)C6OS(=O)(=O)[O-])C(OCc6ccccc6)C5NS(=O)(=O)[O-])C(OCc5ccccc5)C4OS(=O)(=O)[O-])C(OCc4ccccc4)C3NS(=O)(=O)[O-])C(OCc3ccccc3)C2OS(=O)(=O)[O-])C(OCc2ccccc2)C1NS(=O)(=O)[O-].[Na+].[Na+].[Na+].[Na+].[Na+].[Na+].[Na+].[Na+].[Na+].[Na+].[Na+].[Na+].[Na+].[Na+].[Na+].[Na+].[Na+].[Na+].[Na+].[Na+]` (stereo not shown) [Compound 241], the “inhibition of FGF-2-induced fibroblast proliferation” value in assay [2] (FGF-2 5 ng/ml, FIGS. 6-7) is given as “inhibit FGF-2-induced fibroblast proliferation (starting in the micromolar range)”. Besides, the “basal NHDF proliferation” value in assay [2] (control conditions, no growth factor) is “did not seem to be affected”. In addition, the “inhibition of PDGF-β-induced NHDF proliferation” value in assay [1] is on record as “inhibit PDGF-β proliferation (starting in the micromolar range)”.
